We go through three molecules from publication PMC10819521 (Pharmaceutics, 2024).

One experiment relates to Nrf2-ARE. Kind of experiment: Nrf2 transcriptional activation, cell-based luciferase assay. The note with it: CD = concentration required to double the specific activity of the luciferase reporter; 24 h; read-out: Nrf2 Induction Potencies CD. Here is the method: Nrf2 transcriptional activation potencies. The assessment of the Nrf2 transcriptional activation potencies of compounds 4a–l was carried out using the previously described method, and detailed information is provided in the supporting information.
Nrf2 transcriptional activation potencies of compounds 4a–l. […] AREc32 cells were exposed to escalating concentrations of each compound (1, 5, 10, 25, 50, 100, 125, and 150 μM) for 24 h to reach the cytotoxic threshold, followed by measurements of luciferase activity. Melatonin was used as a positive control.
4e H Cl H n.i. 76 n.i. […]
Nrf2 transcriptional activation potencies. The stable NRF2/ARE luciferase reporter HEK293 cell line
(Promega) according to the manufacturer's instructions. To assess cellular viability, the stable
On the technique in general: In a reporter assay the amount or activity of a reporter protein is the signal.

The target of experiment [1] is T1, Human recombinant cathepsin S (Homo sapiens, UniProt P25774).
T1 construct: purchased Enzo Life Sciences
Briefly: Cathepsin S assay (fluorogenic substrate Z-Phe-Arg-AMC). Format: biochemical. The note with it: for remaining activity at 50 µM: 50 µM inhibitor, 60 min, 100% = no inhibitor, n.i. = residual activity ≥ 95%, read-out: Percentage residual activity of human cathepsin S. The procedure:
(§1) Cathepsin assays. Assays with human cathepsins B, S, L, and K were carried out as described previously. Stock solutions of substrates and inhibitors were prepared in DMSO. The final DMSO concentration was 2%. All test compounds were investigated in duplicate at a concentration of 50 µM to determine residual activities based on endpoints of substrate consumption after 60 min. Ki values were obtained in duplicate measurements with six different inhibitor concentrations, and 60-min-progress curves were analyzed by linear regression. IC50 values were obtained by non-linear regression using the equation vi = v0/(1 + ([I]/IC50), where vi is the product formation rate at different inhibitor concentrations, v0 is the uninhibited product formation rate, [I] is the inhibitor concentration, and IC50 is the half-maximal inhibitory concentration. IC50 values are transformed to Ki values using the Cheng-Prusoff equation.
Human recombinant cathepsin S (Enzo Life Sciences) was assayed fluorometrically (FLUOstar Optima plate reader, BMG Labtech) at 25 °C with an emission wavelength of 360 nm and an absorption wavelength of 460 nm. The assay buffer was 100 mM sodium phosphate buffer pH 6.0, 100 mM NaCl, 5 mM EDTA, 0.01% Brij 35. For activation, an enzyme stock solution was diluted with assay buffer containing 5 mM DTT and incubated for 60 min at 37 °C.
(§2) Cathepsins inhibition. Compounds 4a–l were then evaluated for their ability to inhibit Cat S. Besides Cat S, the set of assays included three related human cathepsins, B, L, and K, all members of the class of lysosomal cysteine proteases (see Table S1 in the Supporting Information). Following reported procedures, [39, 40, 41] percentage or residual activities were determined using chromogenic or fluorogenic peptide substrates, with endpoints measured after 60 min of substrate consumption. To determine Ki values, progress curves were followed over 60 min and analyzed by linear regression. Ki values were then obtained by non-linear regression.

The nature of experiment [2]: Oxygen radical absorbance capacity assay (ORAC-FL). The note with it: ORAC-FL method; mean ± SEM. The procedure:
Oxygen radical absorbance capacity assay. The evaluation of the antioxidant activity of compounds 4a–l was carried out using the previously established ORAC-FL method, and detailed information is provided in the supporting information.
Antioxidant assay. The antioxidant assessment was conducted by evaluating the compounds 4a–l through the determination of oxygen radical absorbance capacity (ORAC) using the ORAC-Fluorescein (ORAC-FL) method […]
Oxygen radical absorbance capacity assay.
ORAC-FL method, using fluorescein as a fluorescent probe. Shortly, fluorescein and the antioxidants
2,2'-Azobis(amidinopropane)
(emission wavelength) every minute for 1 hour. […]

The target of experiment [3] is T2, Human isolated cathepsin B (Homo sapiens, UniProt P07858).
T2 construct: Human isolated cathepsin B (Calbiochem) was assayed spectrophotometrically; purchased Calbiochem
Kind of experiment: Cathepsin B assay (chromogenic substrate Z-Arg-Arg-pNA). Format: biochemical. The note with it: 50 µM inhibitor, 60 min; 100% = no inhibitor; n.i. = residual activity ≥ 95%; read-out: Percentage residual activity of human cathepsin B. Here is the method:
as §1
Human isolated cathepsin B (Calbiochem) was assayed spectrophotometrically (Cary 50 Bio, Varian) at 405 nm and 37 °C. Assay buffer was 100 mM sodium phosphate buffer pH 6.0, 100 mM NaCl, 5 mM EDTA, 0.01% Brij 35. For activation, an enzyme stock solution was diluted with assay buffer containing 5 mM DTT and incubated for 30 min at 37 °C. The final concentration of the chromogenic substrate Z-Arg-Arg-pNA was 500 µM (0.45 × Km).
as §2

Experiment [4] addresses T3, Human recombinant cathepsin K (Homo sapiens, UniProt P43235).
T3 construct: purchased Enzo Life Sciences
T3 sequence (P43235 115-329): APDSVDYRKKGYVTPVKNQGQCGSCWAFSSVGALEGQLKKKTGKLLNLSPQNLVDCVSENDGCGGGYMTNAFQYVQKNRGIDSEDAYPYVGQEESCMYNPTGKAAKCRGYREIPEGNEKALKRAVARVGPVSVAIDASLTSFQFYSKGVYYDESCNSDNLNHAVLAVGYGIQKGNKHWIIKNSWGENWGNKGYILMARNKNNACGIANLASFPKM
Kind of experiment: Cathepsin K assay (substrate Z-Leu-Arg-AMC). Format: biochemical. The note with it: 50 µM inhibitor, 60 min; 100% = no inhibitor; n.i. = residual activity ≥ 95%; read-out: Percentage residual activity of human cathepsin K. The procedure:
as §1
Human recombinant cathepsin K (Enzo Life Sciences) was assayed fluorometrically (FLUOstar Optima plate reader, BMG Labtech) with an emission wavelength of 360 nm and an absorption wavelength of 460 nm. The assay buffer was 100 mM sodium citrate pH 5.0, 100 mM NaCl, 1 mM EDTA, 0.01% CHAPS. For activation, an enzyme stock solution was diluted with assay buffer containing 5 mM DTT and incubated for 30 min at 37 °C. The final concentration of the chromogenic substrate Z-Leu-Arg-AMC was 40 µM (13.33 × Km).
as §2

Experiment [5] addresses T4, Human isolated cathepsin L (Homo sapiens, UniProt P07711).
T4 construct: Human isolated cathepsin L (Enzo Life Sciences) was assayed spectrophotometrically; purchased Enzo Life Sciences
Kind of experiment: Cathepsin L assay (chromogenic substrate Z-Phe-Arg-pNA). Format: biochemical. The note with it: 50 µM inhibitor, 60 min; 100% = no inhibitor; n.i. = residual activity ≥ 95%; read-out: Percentage residual activity of human cathepsin L. Here is the method: as §1
Human isolated cathepsin L (Enzo Life Sciences) was assayed spectrophotometrically (Cary 50 Bio, Varian) at 405 nm and 37 °C. The assay buffer was 100 mM sodium phosphate buffer pH 6.0, 100 mM NaCl, 5 mM EDTA, and 0.01% Brij 35. For activation, an enzyme stock solution was diluted with assay buffer containing 5 mM DTT and incubated for 30 min at 37 °C. The final concentration of the chromogenic substrate Z-Phe-Arg-pNA was 100 µM (5.88 × Km).
as §2

The subject of experiment [6] is voltage-gated calcium channels. Kind of experiment: Calcium channel blockade (FLIPR Calcium 6 indicator, SH-SY5Y cells). Format: cell-based, human. The note with it: compounds at 10 µM, KCl/CaCl2 stimulation, n.i. = no inhibition. Here is the method: Calcium channel blockade. Evaluation of the calcium channel blockade of compounds 4a–l was performed using the FLIPR Calcium 6 indicator according to a previously established protocol. Briefly, human neuroblastoma cell line SH-SY5Y seeded out on 96-well plate were treated with fluorescent calcium indicator (FLIPR Calcium 6, Molecular Devices). Cells were incubated with indicator for 2 h at 37 °C, facilitating internalization of the indicator. Subsequently, cells were exposed to nimodipine (10 µM, used as reference inhibitor), DMSO (0.1%, used as vehicle control) or our compounds of interest (10 µM) for 10 min also at 37 °C. Following that, cell fluorescence was recorded using a microplate reader (λEx = 485 nm; λEm = 525 nm). Baseline fluorescence was recorded for 5 s. Afterwards, cells were stimulated by the addition of the solution of KCl and CaCl2 (90 and 5 mM, respectively) in order to induce the opening of voltage-gated calcium channels. An increase in fluorescence of calcium indicator after inducing calcium flux was recorded for another 30 s. Data were collected from three independent experiments, with eight technical replicates per experiment. Fluorescence intensity values were normalized to the baseline recorded before the induction of calcium flux. The percentage of inhibition was calculated as a reduction of normalized calcium flux in comparison with the DMSO vehicle control. Outliers were detected using the Grubbs test, and any outlying values were excluded from further analysis.
Calcium channel blockade. The Ca^2+ channel blocking capacity of compounds 4a–l and nimodipine, used as a standard at a concentration of 10 μM, was evaluated according to an established methodology.

Several values for one entry are separate records, joined by “and”; a condition that tells them apart may be missing. Identical values can stand only once.

Broadly, the Ki is the equilibrium dissociation constant of an inhibitor or competing ligand from its target.

T1 sequence (P25774 115-331): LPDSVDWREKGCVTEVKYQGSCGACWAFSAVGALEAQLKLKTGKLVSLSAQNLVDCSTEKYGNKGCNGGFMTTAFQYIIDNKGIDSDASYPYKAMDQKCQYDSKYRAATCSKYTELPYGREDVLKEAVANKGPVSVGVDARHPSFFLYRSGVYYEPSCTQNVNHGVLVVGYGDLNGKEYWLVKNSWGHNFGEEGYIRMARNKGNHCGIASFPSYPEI
T4 sequence (P07711 114-333): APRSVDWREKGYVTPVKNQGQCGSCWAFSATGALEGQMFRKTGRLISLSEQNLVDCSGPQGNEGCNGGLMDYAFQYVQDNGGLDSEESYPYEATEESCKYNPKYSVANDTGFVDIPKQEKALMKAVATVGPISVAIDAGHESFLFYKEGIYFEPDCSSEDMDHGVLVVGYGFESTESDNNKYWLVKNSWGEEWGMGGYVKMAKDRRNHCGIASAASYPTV

`C#CCN(C)C(=O)C1=C(C)NC(C)=C(C(=O)N(C)CC#C)C1c1ccccc1Cl` [4i, 4-(2-Chlorophenyl)-N2,N3,5,6-tetramethyl-N3,N5-bis(prop-2-yn-1-yl)-1,4-dihydropyridine-3,5-dicarboxamide]: the EC50 in the experiment with Nrf2-ARE was 96 ± 6.1 µM. In addition, the remaining activity at 50 µM in experiment [1] was 58%; in experiment [3], 87%; in experiment [4], 65%; in experiment [5], 91%. Besides, the Ki in experiment [1] (Ki ± SEM, n.i. = no inhibition, residual activity ≥ 95% at 50 μM, read-out: CatS Ki) was determined as 69.3 ± 5.2 µM. Moreover, the ORAC in experiment [2] is 1.93 Trolox equivalents and 1.93 ± 0.08 Trolox equivalents. Moreover, the “Calcium Channel Blockade (%)” value in experiment [6] worked out at 11%.
In the case of `C#CCN(C)C(=O)C1=C(C)NC(C)=C(C(=O)N(C)CC#C)C1c1cccc(OC)c1` [4l, 4-(3-Methoxyphenyl)-N2,N3,5,6-tetramethyl-N3,N5-bis(prop-2-yn-1-yl)-1,4-dihydropyridine-3,5-dicarboxamide], the EC50 in the experiment with Nrf2-ARE came to 81.7 ± 11.6 µM. For the same molecule, the remaining activity at 50 µM in experiment [1] is 79%; in experiment [3], 86%; in experiment [4] it was 81%; in experiment [5], 88%. The ORAC in experiment [2] came out at 0.96 ± 0.07 Trolox equivalents. Besides, the “Calcium Channel Blockade (%)” value in experiment [6] is 15%.
With `C#CCN(C)C(=O)C1=C(C)NC(C)=C(C(=O)N(C)CC#C)C1c1cccc(Cl)c1Cl` [4j, 4-(2,3-Dichlorophenyl)-N2,N3,5,6-tetramethyl-N3,N5-bis(prop-2-yn-1-yl)-1,4-dihydropyridine-3,5-dicarboxamide], the EC50 in the experiment on Nrf2-ARE amounted to 77.2 ± 7.1 µM. For the same molecule, the remaining activity at 50 µM in experiment [1] was found to be 69%; in experiment [3], 90%; in experiment [4], 81%; in experiment [5], 87%. For the same molecule, in experiment [2], the ORAC was 1.82 Trolox equivalents and 1.82 ± 0.05 Trolox equivalents. Moreover, in experiment [6], the “Calcium Channel Blockade (%)” value came out at 12%.
